Results taken from patent publication US7858295B2, “Methods for prolonging survival of platelets using UDP-galactose” (Velico Medical, Inc., priority 2002, dated 2010).

Experiments:
THP-1 cells = assay: In vitro phagocytic assay: ingestion of CM-Orange-labeled chilled or room temperature human platelets by THP-1 phagocytes (flow cytometry); format: cell-based; settings: for % inhibition phagocytosis / inhibitory effect on chilled platelet phagocytosis (in words): chilled platelets; for inhibitory effect on chilled platelet phagocytosis (in words): various concentrations; for inhibitory effect on RT platelet phagocytosis (in words): room temperature platelets
Procedure: CR3 expression was monitored by flow cytometry using a PE-conjugated anti-human CD11b/Mac-1 mAb. Undifferentiated or differentiated THP-1 cells (2×10^6/ml) were plated onto 24-well plates and allowed to adhere for 45 minutes at 37° C. The adherent undifferentiated or differentiated macrophages were activated by the addition of 15 ng/ml PMA for 15 min. CM-range-labeled, chilled or room temperature platelets (10^7/well), previously subjected to different treatments were added to the undifferentiated or differentiated phagocytes in Ca^2+- and Mg^2+-containing HBSS and incubated for 30 min at 37° C. Following the incubation period, the phagocyte monolayer was washed with HBSS for 3 times, and adherent platelets were removed by treatment with 0.05% trypsin/0.53 mM EDTA in HBSS at 37° C. for 5 min followed by 5 mM EDTA at 4° C. to detach the macrophages for flow cytometric analysis of adhesion or ingestion of platelets (Brown et al., 2000). […] CM-Orange-labeled platelets incubated with macrophages were resolved from the phagocytes according to their forward and side scatter properties. The macrophages were gated, 10,000 events acquired for each sample, and data analyzed with CELLQuest software (Becton Dickenson).
To analyze the effects of monosaccharides on platelet phagocytosis, phagocytes (differentiated monocytic cell line THP-1) were incubated in monosaccharide solutions at various concentrations, and the chilled or room temperature platelets were added. Values in the Figures are means±SD of 3-5 experiments comparing percentages of orange-positive monocytes containing ingested platelets incubated with RT or chilled platelets).

human platelets = assay: FITC-lectin (WGA, S-WGA, RCA I) binding to chilled or room temperature platelets by flow cytometry; format: cell-based; settings: alone
Procedure: We then investigated whether wheat germ agglutinin (WGA), a lectin with specificity towards the terminal sugar (GlcNAc), binds more effectively to chilled platelets than to room temperature platelets. Washed, chilled or room temperature platelets were incubated with 2 μg/ml of FITC coupled WGA or FITC coupled succinyl-WGA for 30 min at room temperature and analyzed by flow cytometry. FIGS. 9A and 9B show the dot plots after incubation with FITC-WGA of room temperature (RT) or chilled (Cold) human platelets.
To analyze whether removal of GlcNAc residues reduces the binding of WGA to the platelet surface, chilled and room temperature washed human platelets were treated with 100 U/ml β-Hex for 30 min at 37° C.

Row | Structure (SMILES) | inhibitory effect on chilled platelet phagocytosis (in words) (THP-1 cells) | inhibitory effect on RT platelet phagocytosis (in words) (THP-1 cells) | also measured
1 | O=C[C@H](O)[C@@H](O)[C@@H](O)[C@H](O)CO [D-(+)-galactose] |  |  | % inhibition phagocytosis (THP-1 cells; phagocytes incubated with 100 mM monosaccharide): did not significantly inhibit
2 | O=C[C@@H](O)[C@@H](O)[C@H](O)[C@H](O)CO [D-(+)-mannose] | no inhibitory effect | no inhibitory effect | 
3 | CC(=O)N[C@H]1C(O)O[C@H](CO)[C@@H](O)[C@@H]1O (stereo partly drawn) [GlcNac, N-acetyl-D-glucosamine] | significantly inhibited |  | 
4 | CO[C@H]1O[C@H](CO)[C@@H](O)[C@H](O)[C@H]1O [Methyl-α-D-glucopyranoside] | did not have an inhibitory effect |  | 
5 | CO[C@H]1O[C@H](CO)[C@@H](O)[C@H](O)[C@@H]1O [Methyl-α-D-mannopyranoside] | no inhibitory effect | no inhibitory effect | 
6 | COC1OC(CO)C(O)C(O)C1O [Methyl-β-D-gludopyranoside] | dose-dependent manner |  | 
7 | CO[C@@H]1O[C@H](CO)[C@@H](O)[C@H](O)[C@@H]1O [Methyl-β-D-mannopyranoside] | no inhibitory effect | no inhibitory effect | 
8 | O=c1ccn([C@@H]2O[C@H](COP(=O)(O)OP(=O)(O)O)[C@@H](O)[C@H]2O)c(=O)[nH]1 [UDP] |  |  | effect on S-WGA or RCA I binding to chilled or room temperature human platelets (human platelets): no effect
9 | CC(=O)N[C@@H]1[C@@H](O)[C@H](O)[C@@H](CO)O[C@H]1O [β-GlcNac] | strongly inhibited |  | % inhibition phagocytosis (THP-1 cells; 0.01 mM (10 μM) monosaccharide, listed as β-anomer of GlcNAc): 80%
